Assays:
Assay in all cases: relative viability (nuclei count vs DMSO), 5 days (fraction); higher = more cells survive
Sulindac + Phenformin = compound: CC1=C(CC(=O)O)c2cc(F)ccc2/C1=C\c1ccc([S+](C)[O-])cc1 [Sulindac] + N=C(N)NC(=N)NCCc1ccccc1 [Phenformin] (partner 250 µM)
How it was run: (§1)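 Medians of duplicate plates are given as relative viability. That measure is the nuclei count in treated wells divided by the count in vehicle wells. Counts were taken on 4× images of lung cancer cell lines in 1536-well plates, 5 days after pin-tool dosing the day after seeding with one drug alone or a fixed anchor-drug dose plus five library-drug doses (not always all listed) in √10 steps.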

[1] = compound: CN[C@@H]1C[C@H]2O[C@@](C)([C@@H]1OC)n1c3ccccc3c3c4c(c5c6ccccc6n2c5c31)C(=O)NC4 [Staurosporine] + C[C@@H](Oc1cc(-c2cnn(C3CCNCC3)c2)cnc1N)c1c(Cl)ccc(F)c1Cl [Crizotinib] (partner 1 µM)
How it was run: as §1

[2] = compound: CN[C@@H]1C[C@H]2O[C@@](C)([C@@H]1OC)n1c3ccccc3c3c4c(c5c6ccccc6n2c5c31)C(=O)NC4 [Staurosporine] + N=C(N)NC(=N)NCCc1ccccc1 [Phenformin] (partner 250 µM)
How it was run: as §1

[3] = compound: O=c1[nH]cc(F)c(=O)[nH]1 [5-Fluorouracil] + Cc1cc(Nc2cc(N3CCN(C)CC3)nc(Sc3ccc(NC(=O)C4CC4)cc3)n2)n[nH]1 [Tozasertib] (partner 0.1 µM)
How it was run: as §1

Cell Line | relative viability (Sulindac + Phenformin; first compound 0.08 µM) | relative viability (Sulindac + Phenformin; first compound 0.8 µM) | relative viability (Sulindac + Phenformin; first compound 2.53 µM) | relative viability (Sulindac + Phenformin; first compound 8 µM) | relative viability ([1]; first compound 0.005 µM) | relative viability ([1]; first compound 0.01581 µM) | relative viability ([1]; first compound 0.05 µM) | relative viability ([1]; first compound 0.1581 µM) | relative viability ([1]; first compound 0.5 µM) | relative viability ([2]; first compound 0.005 µM) | relative viability ([2]; first compound 0.05 µM) | relative viability ([2]; first compound 0.1581 µM) | relative viability ([2]; first compound 0.5 µM) | relative viability ([3]; first compound 0.02 µM) | relative viability ([3]; first compound 0.2 µM) | relative viability ([3]; first compound 0.6325 µM) | relative viability ([3]; first compound 2 µM) | relative viability (Sulindac + Phenformin; first compound 0.253 µM) | relative viability ([2]; first compound 0.01581 µM)
NCI-H23 | 0.819 | 0.61 | 0.819 | 0.824 | 0.296 | 0.234 | 0.193 | 0.176 | 0.125 | 0.763 | 0.351 | 0.174 | 0.161 | 0.544 | 0.327 | 0.318 | 0.189 |  | 
NCI-H838 | 0.519 | 0.364 | 0.518 | 0.6 | 0.259 | 0.179 | 0.175 | 0.168 | 0.127 | 0.208 | 0.136 | 0.125 | 0.0931 | 0.267 | 0.251 | 0.243 | 0.183 | 0.652 | 0.139
HCC-366 | 0.651 | 0.587 | 0.61 | 0.703 | 0.972 |  | 0.171 | 0.0224 | 0.0156 | 0.708 | 0.519 | 0.283 | 0.0201 | 0.193 | 0.0738 | 0.0902 | 0.0478 | 0.679 | 
NCI-H1666 | 0.564 | 0.561 | 0.529 | 0.631 | 0.536 | 0.528 | 0.418 | 0.236 | 0.2 | 0.495 | 0.518 | 0.262 | 0.201 | 0.672 | 0.446 | 0.4 | 0.399 | 0.629 | 0.567
HCC-44 | 0.181 | 0.186 | 0.159 | 0.261 | 0.531 | 0.508 | 0.197 | 0.0883 | 0.0867 | 0.104 | 0.0757 | 0.0829 | 0.0953 | 1.19 | 0.844 | 0.739 | 0.291 | 0.205 | 0.0863
A-427 | 0.332 | 0.248 | 0.334 | 0.354 | 0.841 | 0.582 | 0.236 | 0.126 | 0.122 | 0.189 | 0.109 | 0.0973 | 0.123 | 0.181 |  | 0.189 | 0.159 | 0.324 | 0.114
NCI-H460 | 1.03 | 0.201 | 0.543 | 0.585 | 0.708 | 0.677 | 0.0267 | 0.0065 | 0.0073 | 0.301 | 0.071 | 0.0104 | 0.0069 | 0.459 | 0.13 | 0.106 | 0.0388 | 0.666 | 0.0818
NCI-H441 | 0.992 | 0.456 | 0.808 | 0.958 | 0.8 | 0.29 | 0.3 | 0.179 | 0.156 | 0.817 | 0.246 | 0.202 | 0.102 | 0.701 | 0.468 | 0.372 | 0.343 | 1.03 | 0.259
ABC-1 | 0.23 | 0.209 | 0.255 | 0.226 | 0.43 | 0.285 | 0.149 | 0.0998 | 0.0958 | 0.169 | 0.0951 | 0.0728 | 0.105 | 0.163 | 0.184 | 0.171 | 0.195 | 0.214 | 0.205
LK-2 | 0.412 |  |  | 0.529 | 0.18 | 0.16 | 0.129 | 0.0689 | 0.0939 | 0.676 |  | 0.127 | 0.126 | 0.169 | 0.176 | 0.16 | 0.189 | 0.421 | 
NCI-H2085 | 0.767 | 0.593 | 0.739 | 0.751 | 0.65 | 0.516 | 0.465 | 0.264 | 0.237 |  | 0.312 | 0.151 | 0.174 | 0.867 | 0.784 | 0.828 | 0.608 | 0.912 | 0.197
NCI-H650 | 0.448 | 0.389 | 0.471 | 0.502 | 0.443 | 0.333 | 0.271 | 0.196 | 0.151 | 0.285 | 0.26 | 0.189 | 0.164 | 0.765 | 0.384 | 0.309 | 0.257 | 0.466 | 0.257
SK-MES-1 | 0.798 | 0.591 | 0.662 | 0.73 | 0.718 | 0.582 | 0.262 | 0.184 | 0.11 | 0.345 | 0.185 | 0.132 | 0.219 | 1.05 | 0.408 | 0.319 | 0.28 | 0.77 | 0.267
NCI-H3122 | 0.384 | 0.626 | 0.325 | 0.413 | 0.443 | 0.465 | 0.59 | 0.32 | 0.318 | 0.283 | 0.335 | 0.12 | 0.0915 | 0.382 | 0.356 | 0.203 | 0.157 | 0.37 | 
LCLC-103H | 0.361 | 0.286 | 0.315 | 0.323 | 1.1 | 0.741 | 0.564 | 0.318 | 0.258 | 0.296 | 0.16 | 0.108 | 0.105 | 0.536 | 0.511 | 0.305 | 0.212 | 0.318 | 0.211
NCI-H596 | 0.839 | 0.56 | 0.71 | 0.771 | 1.16 | 0.959 | 0.447 | 0.189 | 0.156 | 0.797 | 0.383 | 0.249 | 0.194 | 0.939 | 0.845 | 0.479 | 0.364 | 0.892 | 0.323
NCI-H358 | 0.362 | 0.221 | 0.312 | 0.385 | 0.386 | 0.225 | 0.106 | 0.116 | 0.0764 | 0.337 | 0.0848 | 0.0499 | 0.0405 | 0.132 | 0.104 | 0.0975 | 0.103 | 0.369 | 0.0847

— the supplement of paper PMC10307832
